Data as given in PubChem BioAssay AID330 (DTP/NCI, 2004).
Values joined by “and” are separate entries in the source; they are usually repeats but may differ in a detail not shown here. Identical values can stand only once. Inconclusive results and toxic doses are left out.

Test system: P388 leukemia ip, CD2F1 mice, survival T/C
Assay: NCI In Vivo Anticancer Drug Screen. Data for tumor model P388 Leukemia (intraperitoneal) in CD2F1 (CDF1) mice
Conditions: endpoint: median survival time, higher = longer survival
Outline: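 Mice carrying the transplanted tumor received test compound or vehicle. Survival was recorded in each group, and the value is the treated-group measurement divided by that of the vehicle-treated control group.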

[1] = dose: 50.0 mg/kg/injection, schedule: Q01DX001 (ip), vehicle: Klucel (hydroxypropylcellulose) (HPC)
[2] = dose: 100.0 mg/kg/injection, schedule: Q01DX001 (ip), vehicle: Klucel (hydroxypropylcellulose) (HPC)
[3] = dose: 200.0 mg/kg/injection, schedule: Q01DX001 (ip), vehicle: Klucel (hydroxypropylcellulose) (HPC)
[4] = dose: 60.0 mg/kg/injection, schedule: Q01DX005 (ip), vehicle: saline with Tween-80
[5] = dose: 120.0 mg/kg/injection, schedule: Q01DX005 (ip), vehicle: saline with Tween-80
[6] = dose: 240.0 mg/kg/injection, schedule: Q01DX005 (ip), vehicle: saline with Tween-80
[7] = dose: 50.0 mg/kg/injection, schedule: Q01DX009 (ip), vehicle: saline
[8] = dose: 100.0 mg/kg/injection, schedule: Q01DX009 (ip), vehicle: saline
[9] = dose: 25.0 mg/kg/injection, schedule: Q01DX005 (ip), vehicle: Klucel (hydroxypropylcellulose) (HPC)
[10] = dose: 50.0 mg/kg/injection, schedule: Q01DX005 (ip), vehicle: Klucel (hydroxypropylcellulose) (HPC)
[11] = dose: 100.0 mg/kg/injection, schedule: Q01DX005 (ip), vehicle: Klucel (hydroxypropylcellulose) (HPC)
[12] = dose: 200.0 mg/kg/injection, schedule: Q01DX005 (ip), vehicle: Klucel (hydroxypropylcellulose) (HPC)
[13] = dose: 100.0 mg/kg/injection, schedule: Q04DX002 (ip), vehicle: Klucel (hydroxypropylcellulose) (HPC)
[14] = dose: 200.0 mg/kg/injection, schedule: Q04DX002 (ip), vehicle: Klucel (hydroxypropylcellulose) (HPC)
[15] = dose: 400.0 mg/kg/injection, schedule: Q04DX002 (ip), vehicle: Klucel (hydroxypropylcellulose) (HPC)
[16] = dose: 50.0 mg/kg/injection, schedule: Q01DX005 (ip), vehicle: saline with Tween-80
[17] = dose: 100.0 mg/kg/injection, schedule: Q01DX005 (ip), vehicle: saline with Tween-80
[18] = dose: 200.0 mg/kg/injection, schedule: Q01DX005 (ip), vehicle: saline with Tween-80
[19] = dose: 200.0 mg/kg/injection, schedule: Q01DX009 (ip), vehicle: saline

O=C1OCC2CC3c4ccccc4C12c1ccccc13 (stereo not given)
T/C (dose: 25.0 mg/kg/injection, schedule: Q01DX001 (ip), vehicle: Klucel (hydroxypropylcellulose) (HPC)): 100 % of control | T/C [1]: 94 % of control | T/C [2]: 100 % of control | T/C [3]: 103 % of control

C/C=C\C=C/NC(=O)N1CCCC1
T/C [4]: 113 % of control | T/C [5]: 118 % of control | T/C [6]: 116 % of control

C[S+](CCSc1ccccc1)CCSc1ccccc1
T/C (dose: 7.5 mg/kg/injection, schedule: Q01DX009 (ip), vehicle: saline with Tween-80): 90 % of control | T/C (dose: 15.0 mg/kg/injection, schedule: Q01DX009 (ip), vehicle: saline with Tween-80): 101 % of control | T/C (dose: 30.0 mg/kg/injection, schedule: Q01DX009 (ip), vehicle: saline with Tween-80): 99 % of control

O=C1C=CC=C2C(=O)C(c3ccccc3)(c3ccccc3)[N+]([O-])=C12
T/C (dose: 50.0 mg/kg/injection, schedule: Q04DX002 (ip), vehicle: saline): 100 % of control | T/C (dose: 100.0 mg/kg/injection, schedule: Q04DX002 (ip), vehicle: saline): 98 % of control | T/C (dose: 200.0 mg/kg/injection, schedule: Q04DX002 (ip), vehicle: saline): 111 % of control

O=S(=O)(/N=C1C=C/C(=N\S(=O)(=O)c2ccccc2)C2C/1C2(c1ccccc1)c1ccccc1)c1ccccc1 (stereo not given)
T/C [1]: 98 % of control | T/C [2]: 97 % of control | T/C [3]: 99 % of control

COC(=O)C1=C(C(=O)OC)[C]([Hg][CH3])(C(C)=O)N=N1 (stereo not given)
T/C (dose: 1.56 mg/kg/injection, schedule: Q01DX009 (ip), vehicle: saline): 88 % of control | T/C (dose: 3.12 mg/kg/injection, schedule: Q01DX009 (ip), vehicle: saline): 88 % of control | T/C (dose: 6.25 mg/kg/injection, schedule: Q01DX009 (ip), vehicle: saline): 93 % of control | T/C (dose: 12.5 mg/kg/injection, schedule: Q01DX009 (ip), vehicle: saline): 106 % of control

CN1C(=O)N(C)C2(C#N)CC2([N+](=O)[O-])C1=O (stereo not given)
T/C (dose: 12.5 mg/kg/injection, schedule: Q01DX009 (ip), vehicle: saline with Tween-80): 89 % of control | T/C (dose: 25.0 mg/kg/injection, schedule: Q01DX009 (ip), vehicle: saline with Tween-80): 90 % of control

O=C/C(Cl)=C(/Cl)C(=O)O
T/C (dose: 2.5 mg/kg/injection, schedule: Q01DX009 (ip), vehicle: saline with Tween-80): 110 % of control and 123 % of control | T/C (dose: 5.0 mg/kg/injection, schedule: Q01DX009 (ip), vehicle: saline with Tween-80): 117 % of control and 121 % of control | T/C (dose: 10.0 mg/kg/injection, schedule: Q01DX009 (ip), vehicle: saline with Tween-80): 120 % of control and 121 % of control

C1=C(C2CCCC3[C@@H]4C[C@@H](CN23)C2CCCCN2C4)CCC2[C@H]3C[C@H](CN12)C1CCCCN1C3 (stereo not given in full)
T/C (dose: 3.75 mg/kg/injection, schedule: Q01DX005 (ip), vehicle: Klucel (hydroxypropylcellulose) (HPC)): 106 % of control | T/C (dose: 7.5 mg/kg/injection, schedule: Q01DX005 (ip), vehicle: Klucel (hydroxypropylcellulose) (HPC)): 104 % of control | T/C (dose: 15.0 mg/kg/injection, schedule: Q01DX005 (ip), vehicle: Klucel (hydroxypropylcellulose) (HPC)): 110 % of control and 96 % of control | T/C (dose: 30.0 mg/kg/injection, schedule: Q01DX005 (ip), vehicle: Klucel (hydroxypropylcellulose) (HPC)): 100 % of control

CCCCCCCCCCCCC1OCN2CCCCC12 (stereo not given)
T/C (dose: 50.0 mg/kg/injection, schedule: Q01DX005 (ip), vehicle: saline): 106 % of control | T/C (dose: 100.0 mg/kg/injection, schedule: Q01DX005 (ip), vehicle: saline): 100 % of control | T/C (dose: 200.0 mg/kg/injection, schedule: Q01DX005 (ip), vehicle: saline): 113 % of control

CCCCCC(CN(C)C)C(/C=C/c1ccccc1Cl)=N\O (stereo not given)
T/C [7]: 106 % of control | T/C [8]: 112 % of control

C(=Nc1ccccc1)C1CCCC[N-]1.C(=Nc1ccccc1)C1CCCC[N-]1.[Cu+2].[O-][Cl+3]([O-])([O-])O (stereo not given)
T/C (dose: 4.5 mg/kg/injection, schedule: Q01DX009 (ip), vehicle: saline with Tween-80): 90 % of control | T/C (dose: 9.0 mg/kg/injection, schedule: Q01DX009 (ip), vehicle: saline with Tween-80): 97 % of control | T/C (dose: 18.0 mg/kg/injection, schedule: Q01DX009 (ip), vehicle: saline with Tween-80): 97 % of control | T/C (dose: 18.75 mg/kg/injection, schedule: Q01DX009 (ip), vehicle: saline with Tween-80): 97 % of control | T/C (dose: 50.0 mg/kg/injection, schedule: Q01DX009 (ip), vehicle: saline with Tween-80): 96 % of control

Cc1cccn2c(N=O)cnc12
T/C (dose: 100.0 mg/kg/injection, schedule: Q04DX003 (ip), vehicle: saline with Tween-80): 98 % of control

CC1=NN(c2ccccc2)C(=O)C1C1c2ccccc2S(=O)(=O)c2ccccc21 (stereo not given)
T/C (dose: 60.0 mg/kg/injection, schedule: Q01DX005 (ip), vehicle: Klucel (hydroxypropylcellulose) (HPC)): 97 % of control | T/C (dose: 120.0 mg/kg/injection, schedule: Q01DX005 (ip), vehicle: Klucel (hydroxypropylcellulose) (HPC)): 87 % of control

CC1=C(C(=O)CC(=O)Nc2ccc(Cl)c(Cl)c2)Sc2ccccc2N1
T/C [4]: 96 % of control | T/C [5]: 92 % of control | T/C [6]: 99 % of control

CCCCOc1ccc(C(C)c2cc3c(cc2OCC)OCO3)cc1 (stereo not given)
T/C [9]: 103 % of control | T/C [10]: 103 % of control | T/C [11]: 100 % of control | T/C [12]: 104 % of control

c1cnc2ccc3ncccc3c2c1
T/C (dose: 12.5 mg/kg/injection, schedule: Q01DX005 (ip), vehicle: Klucel (hydroxypropylcellulose) (HPC)): 99 % of control | T/C [9]: 96 % of control | T/C [10]: 100 % of control and 97 % of control

S=P(N1CCCC1)(N1CC1)N1CC1
T/C (dose: 2.2 mg/kg/injection, schedule: Q01DX009 (ip), vehicle: saline): 111 % of control | T/C (dose: 3.3 mg/kg/injection, schedule: Q01DX009 (ip), vehicle: saline): 155 % of control | T/C (dose: 7.5 mg/kg/injection, schedule: Q01DX009 (ip), vehicle: saline): 177 % of control | T/C (dose: 11.0 mg/kg/injection, schedule: Q04DX003 (ip), vehicle: saline with Tween-80): 104 % of control | T/C (dose: 25.0 mg/kg/injection, schedule: Q04DX003 (ip), vehicle: saline with Tween-80): 200 % of control | T/C (dose: 37.5 mg/kg/injection, schedule: Q04DX003 (ip), vehicle: saline with Tween-80): 90 % of control

CC1(C)OCC(C2OC3OC(C)(C)OC3C2N2CCC(O)O2)O1 (stereo not given)
T/C (dose: 97.75 mg/kg/injection, schedule: Q04DX002 (ip), vehicle: saline): 103 % of control | T/C (dose: 195.5 mg/kg/injection, schedule: Q04DX002 (ip), vehicle: saline): 109 % of control | T/C (dose: 391.0 mg/kg/injection, schedule: Q04DX002 (ip), vehicle: saline): 105 % of control

COC(=O)CC[C@@H](C)C1CC[C@H]2[C@@H]3CC[C@H]4C=C(O)C(=O)C[C@]4(C)[C@H]3C[C@H](OC(C)=O)[C@]12C (stereo not given in full)
T/C [13]: 102 % of control | T/C [14]: 101 % of control | T/C [15]: 108 % of control

COc1ccc(COC(=O)Nc2ccccc2F)c(OC)c1OC
T/C [16]: 91 % of control | T/C [17]: 101 % of control | T/C [18]: 100 % of control

CCOC(=O)CS(=O)(=O)CCCCCCCCCCS(=O)(=O)CC(=O)OCC
T/C [7]: 102 % of control | T/C [8]: 99 % of control | T/C [19]: 89 % of control

Nc1cc(C(F)(F)F)ccc1-c1ccn[nH]1
T/C [7]: 94 % of control | T/C [8]: 97 % of control | T/C [19]: 96 % of control

CCn1c(=O)oc2ccc(Br)cc21
T/C [13]: 100 % of control | T/C [14]: 98 % of control | T/C [15]: 104 % of control

O=C(N/N=C/c1ccccc1Cl)C(=O)Nc1cccc(C(F)(F)F)c1
T/C [10]: 95 % of control | T/C [11]: 96 % of control | T/C [12]: 99 % of control

CCC(/C=C/c1ccccc1)=N\Nc1ccc(C)cc1
T/C [4]: 107 % of control | T/C [5]: 117 % of control | T/C [6]: 114 % of control

CC(=O)c1cc2ccccc2c2ccccc12
T/C [16]: 98 % of control | T/C [17]: 98 % of control | T/C [18]: 96 % of control
